Consider eleven molecules from ChEMBL document CHEMBL3396962, “Design and synthesis of N-methylpyrimidone derivatives as HIV-1 integrase inhibitors” (Bioorg Med Chem, 2015).

Experiment [1] concerns the target Human immunodeficiency virus type 1 integrase (Human immunodeficiency virus 1, UniProt Q7ZJM1). Nature of the experiment: Inhibition of HIV-1 integrase after 1 hr by strand transfer activity assay.
In experiment [2] the test system is Human immunodeficiency virus 1. Briefly: Antiviral activity against HIV-1 infected in human TZM-bl cells after 40 to 48 hrs by beta-galactosidase assay. The following applies: Human immunodeficiency virus 1, TZM-bl. In kind it is functional, organism-based.

Usually IC50 stands for the concentration that gives 50% inhibition. A high value points to a need for much substance. A word on the EC50: it is the midpoint of the concentration-response curve. High values mean weaker potency, low ones greater potency.

Some results are limits rather than exact numbers.

Sequence of Human immunodeficiency virus type 1 integrase (Q7ZJM1 whole entry): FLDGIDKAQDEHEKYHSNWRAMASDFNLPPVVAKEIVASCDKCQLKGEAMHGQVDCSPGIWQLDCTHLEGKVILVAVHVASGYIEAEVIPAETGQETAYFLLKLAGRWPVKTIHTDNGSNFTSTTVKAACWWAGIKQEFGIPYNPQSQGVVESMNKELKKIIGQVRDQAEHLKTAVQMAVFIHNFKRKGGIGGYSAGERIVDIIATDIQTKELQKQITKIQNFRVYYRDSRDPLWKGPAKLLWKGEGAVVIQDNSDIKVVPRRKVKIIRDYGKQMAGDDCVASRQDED

As to `COc1c(C(=O)N2CCN(CCNC(=O)c3cc(O)c(O)c(O)c3)CC2)nc(Cc2ccc(O)cc2)n(C)c1=O`, half-maximal inhibition in experiment [1] (IC50) required 0.7 µM.
In the case of `COc1c(C(=O)N2CCN(CCCNC(=O)c3cc(O)c(O)c(O)c3)CC2)nc(Cc2ccc(Cl)cc2)n(C)c1=O`, the half-maximal inhibitory concentration (IC50) in experiment [1] worked out at 2.4 µM. A half-maximal response in experiment [2] (EC50) required 4.27 µM.
For the molecule `COc1c(C(=O)N2CCN(CCCNC(=O)c3ccc(O)c(O)c3)CC2)nc(Cc2ccc(F)cc2)n(C)c1=O`, the 50% inhibitory concentration (IC50) in experiment [1] is above 100 µM.
On to `COc1c(C(=O)N2CCN(CCCNC(=O)c3cc(O)c(O)c(O)c3)CC2)nc(Cc2ccc(Cl)c(Cl)c2)n(C)c1=O`, for which the IC50 in experiment [1] amounted to 22.4 µM.
`COc1c(C(=O)N2CCN(CCCNC(=O)c3ccc(O)c(O)c3)CC2)nc(Cc2ccc(O)cc2)n(C)c1=O` had a half-maximal inhibitory concentration (IC50) in experiment [1] above 100 µM.
In experiment [1], `COc1c(C(=O)N2CCN(CCCNC(=O)c3cc(O)c(O)c(O)c3)CC2)nc(Cc2ccc(C)cc2)n(C)c1=O` showed an IC50 of 3.5 µM. In experiment [2], a half-maximal response (EC50) required 2.76 µM.
Molecule `COc1c(C(=O)N2CCN(CCNC(=O)c3cc(O)c(O)c(O)c3)CC2)nc(Cc2ccccc2)n(C)c1=O` showed a 50% inhibitory concentration (IC50) in experiment [1] of 18.6 µM.
In the case of `COc1c(C(=O)N2CCN(CCCNC(=O)c3cc(O)c(O)c(O)c3)CC2)nc(Cc2ccccc2)n(C)c1=O`, half-maximal inhibition in experiment [1] (IC50) was put at 0.9 µM. In addition, in experiment [2], the EC50 came out at 1.13 µM.
Taken in the same sequence, the figures for `COc1c(C(=O)N2CCN(CCCNC(=O)c3cc(O)c(O)c(O)c3)CC2)nc(Cc2ccc(F)cc2)n(C)c1=O` were 18.9 µM and 4.39 µM.
In experiment [1], `COc1c(C(=O)N2CCN(CCCNC(=O)c3ccc(O)c(O)c3)CC2)nc(Cc2ccccc2)n(C)c1=O` came in with a half-maximal inhibitory concentration (IC50) above 100 µM.
For the molecule `COc1c(C(=O)N2CCN(CCNC(=O)c3cc(O)c(O)c(O)c3)CC2)nc(Cc2ccc(F)cc2)n(C)c1=O`, the IC50 in experiment [1] was 2.5 µM.
